Read-outs that look alike come from different tables or passages of the source.
Key:
[1] = Water solubility test (Japanese Pharmacopoeia solubility test method); type: physicochemical; details: 20±5° C., dissolution in 30 min; for evaluation (water solubility): criteria of Table 9
Description: According to the Japanese Pharmacopoeia solubility test method, the compounds of Examples 1 and 7 of the present invention and the corresponding N-methyl unsubstituted compounds were examined for water solubility. To be specific, a test substance was powderized, placed in water and the mixture was vigorously shaken for 30 sec every 5 min at 20±5° C. The solubility was evaluated based on the degree of dissolution in 30 min by reference to the following Table 9.

S. aureus ATCC 6538 = test: Bactericidal activity test (MBC measurement); type: cell-based, Staphylococcus aureus
Description: (§1) Each strain was cultured in Trypticase Soy agar medium for 18 to 20 hr, suspended in 0.1% peptone saline, and prepared to OD 600 nm, 1.0 McFarland. The suspension was further diluted with 0.1% peptone saline to give a test bacteria solution (targeted value; 2×10^7 CFU/mL).
(§2) At 0.5, 1 and 3 min from the start of the reaction, a part of the reaction mixture was sampled and mixed with an equal amount of a neutralizing agent (10% Tween 80, 3% lecithin/aqueous solution) to terminate the bactericidal reaction. The reaction mixture was inoculated to a 96 well microplate dispensed with 180 μL of Tripticase Soy liquid medium in advance, and statically cultured at 37° C. for 20 to 24 hr. Thereafter, the presence or absence of growth was visually evaluated, and the minimum concentration at which growth was not observed was taken as the minimal bactericidal concentration (MBC value) of each action time. The numerical values in the Tables show MBC, the unit is μg/mL, S. aureus means Staphylococcus aureus, MRSA means methicillin-resistant Staphylococcus aureus, E. coli means Escherichia coli, and P. aeruginosa means Pseudomonas aeruginosa.

MRSA ATCC 33591 = test: Bactericidal activity test (MBC measurement); type: cell-based, methicillin-resistant Staphylococcus aureus
Description: as §1, §2

E. coli ATCC 25922 = test: Bactericidal activity test (MBC measurement); type: cell-based, Escherichia coli
Description: as §1, §2

P. aeruginosa PAO-1 = test: Bactericidal activity test (MBC measurement); type: cell-based, Pseudomonas aeruginosa
Description: as §1, §2

P. aeruginosa ATCC 27853 = test: Bactericidal activity test (MBC measurement); type: cell-based, Pseudomonas aeruginosa
Description: as §1, §2

[2] = Skin sensitivity test, LLNA-BrdU method (lymph node weight); type: in vivo; details: 5 w/v % in acetone/olive oil 4:1, transdermal to auricle once a day for 3 days, mice
Description: For application of an external bactericidal/disinfectant agent to the skin, the sensitivity (allergenicity) is desirably as small as possible. […] The sensitivity was evaluated by a Local lymph node assay (LLNA) method using Bromodeoxyuridine (BrdU). In this test, measurement of the amount of BrdU uptaken by the lymph node using an ELISA kit was not performed, and the evaluation was based solely on the weight increase of the lymph node.
8-Week-old female CBA/JN Crlj mice were grouped (3 per group) according to the adequate strafication method based on the body weight (about 20 g) on the first day of administration. A test substance was prepared to 5 w/v % for each test substance by using a mixed solution of acetone and olive oil (v/v=4:1, A00). This was repeatedly administered transdermally to the auricle of the mice at 25 μL/auricle (50 for both auricles) once a day for 3 days. Two days after the final administration, BrdU 10 mg/mL (0.5 mL/mouse) was intraperitoneally administered. Three days after the final transdermal administration (next day of BrdU administration), carbon dioxide was given by inhalation to a comfortable death, and the auricle lymph node was isolated and the weight thereof was measured.

[3] = Staphylococcus aureus, ATCC6538, 0.5 min, S. aureus ATCC 6538, action time 0.5 min, read-out: MBC
[4] = Staphylococcus aureus, ATCC6538, 1 min, S. aureus ATCC 6538, action time 1 min, read-out: MBC
[5] = Staphylococcus aureus, ATCC6538, 0.05 h, S. aureus ATCC 6538, action time 3 min, read-out: MBC
[6] = Staphylococcus aureus, 0.5 min, MRSA ATCC 33591, action time 0.5 min, read-out: MBC
[7] = Staphylococcus aureus, 1 min, MRSA ATCC 33591, action time 1 min, read-out: MBC
[8] = Staphylococcus aureus, 0.05 h, MRSA ATCC 33591, action time 3 min, read-out: MBC
[9] = Escherichia coli, ATCC25922, 0.5 min, E. coli ATCC 25922, action time 0.5 min, read-out: MBC
[10] = Escherichia coli, ATCC25922, 1 min, E. coli ATCC 25922, action time 1 min, read-out: MBC
[11] = Escherichia coli, ATCC25922, 0.05 h, E. coli ATCC 25922, action time 3 min, read-out: MBC
[12] = Pseudomonas aeruginosa, PAO1, 0.5 min, P. aeruginosa PAO-1, action time 0.5 min, read-out: MBC
[13] = Pseudomonas aeruginosa, PAO1, 1 min, P. aeruginosa PAO-1, action time 1 min, read-out: MBC
[14] = Pseudomonas aeruginosa, PAO1, 0.05 h, P. aeruginosa PAO-1, action time 3 min, read-out: MBC
[15] = Pseudomonas aeruginosa, ATCC27853, 0.5 min, P. aeruginosa ATCC 27853, action time 0.5 min, read-out: MBC
[16] = Pseudomonas aeruginosa, ATCC27853, 1 min, P. aeruginosa ATCC 27853, action time 1 min, read-out: MBC
[17] = Pseudomonas aeruginosa, ATCC27853, 0.05 h, P. aeruginosa ATCC 27853, action time 3 min, read-out: MBC

CCCCCCCCNC1=NC(C)(C)NC(NCc2ccc(Cl)cc2)=N1 [Comp. Ex. 1, reference compound]
water (mL) to dissolve 1 g [1]: 110 mL
evaluation (water solubility) [1]: slightly soluble (not less than 100 mL less than 1,000 mL)

CCCCCCCCNC1=NC(C)(C)NC(NCc2ccc(C)cc2)=N1 [Comp. Ex. 2, reference compound]
water (mL) to dissolve 1 g [1]: 50 mL
evaluation (water solubility) [1]: sparingly soluble (not less than 30 mL less than 100 mL)

CCCCCCCCN(C)C1=NC(C)(C)NC(NCc2ccc(Cl)cc2)=N1 [Example 1, N^4-octyl-N^4-methyl-1,6-dihydro-6,6-dimethyl-N^2— (4-chlorobenzyl)-1,3,5-triazine-2,4-diamine acetate]
MBC (S. aureus ATCC 6538; [3]): 50 µg/mL
MBC (S. aureus ATCC 6538; [4]): 12 µg/mL
MBC (S. aureus ATCC 6538; [5]): 6.25 µg/mL
MBC (MRSA ATCC 33591; [6]): 50 µg/mL
MBC (MRSA ATCC 33591; [7]): 25 µg/mL
MBC (MRSA ATCC 33591; [8]): 12.5 µg/mL
water (mL) to dissolve 1 g [1]: <0.5 mL
evaluation (water solubility) [1]: very soluble (less than 1 mL)
MBC (E. coli ATCC 25922; [9]): 12.5 µg/mL
MBC (E. coli ATCC 25922; [10]): 12.5 µg/mL
MBC (E. coli ATCC 25922; [11]): 12.5 µg/mL
MBC (P. aeruginosa PAO-1; [12]): 12.5 µg/mL
MBC (P. aeruginosa PAO-1; [13]): 12.5 µg/mL
MBC (P. aeruginosa PAO-1; [14]): 12.5 µg/mL
MBC (P. aeruginosa ATCC 27853; [15]): 12.5 µg/mL
MBC (P. aeruginosa ATCC 27853; [16]): 12.5 µg/mL
MBC (P. aeruginosa ATCC 27853; [17]): 12.5 µg/mL

CCCCCCCCNC1=NC(C)(C)NC(N(C)Cc2ccccc2)=N1 [Example 5, N^4-octyl-1,6-dihydro-6,6-dimethyl-N^2-benzyl-N^2-methyl-1,3,5-triazine-2,4-diamine acetate]
MBC (S. aureus ATCC 6538; [3]): 200 µg/mL
MBC (MRSA ATCC 33591; [6]): 50 µg/mL
MBC (E. coli ATCC 25922; [9]): 25 µg/mL
SI value (Stimulation index, lymph node weight ratio to solvent group) [2]: 0.9
MBC (P. aeruginosa PAO-1; [12]): 25 µg/mL
MBC (P. aeruginosa ATCC 27853; [15]): 12.5 µg/mL

CCCCCCCCCCNC(=N)NC(=N)N(C)Cc1ccccc1.Cl.Cl [Example 29, N^5-decyl-N′-methyl-N′-benzyl-biguanide dihydrochloride]
MBC (S. aureus ATCC 6538; S. aureus ATCC 6538, action time 0.5 min): 200 µg/mL
MBC (S. aureus ATCC 6538; S. aureus ATCC 6538, action time 1 min): 100 µg/mL
MBC (S. aureus ATCC 6538; S. aureus ATCC 6538, action time 3 min): 12.5 µg/mL
MBC (MRSA ATCC 33591; MRSA ATCC 33591, action time 0.5 min): 200 µg/mL
MBC (MRSA ATCC 33591; MRSA ATCC 33591, action time 1 min): 200 µg/mL
MBC (MRSA ATCC 33591; MRSA ATCC 33591, action time 3 min): 50 µg/mL
MBC (E. coli ATCC 25922; E. coli ATCC 25922, action time 0.5 min): 6.25 µg/mL
MBC (E. coli ATCC 25922; E. coli ATCC 25922, action time 1 min): 6.25 µg/mL
MBC (E. coli ATCC 25922; E. coli ATCC 25922, action time 3 min): 6.25 µg/mL
MBC (P. aeruginosa PAO-1; P. aeruginosa PAO-1, action time 0.5 min): 12.5 µg/mL
MBC (P. aeruginosa PAO-1; P. aeruginosa PAO-1, action time 1 min): 12.5 µg/mL
MBC (P. aeruginosa PAO-1; P. aeruginosa PAO-1, action time 3 min): 6.25 µg/mL
MBC (P. aeruginosa ATCC 27853; P. aeruginosa ATCC 27853, action time 0.5 min): 12.5 µg/mL
MBC (P. aeruginosa ATCC 27853; P. aeruginosa ATCC 27853, action time 1 min): 12.5 µg/mL
MBC (P. aeruginosa ATCC 27853; P. aeruginosa ATCC 27853, action time 3 min): 6.25 µg/mL

CCCCCCCCCNC(=N)NC(=N)N(C)Cc1ccccc1.Cl.Cl [Example 30, N^5-nonyl-N^1-methyl-N^1-benzyl-biguanide dihydrochloride]
MBC (S. aureus ATCC 6538; [3]): 200 µg/mL
MBC (S. aureus ATCC 6538; [4]): 100 µg/mL
MBC (S. aureus ATCC 6538; [5]): 25 µg/mL
MBC (MRSA ATCC 33591; [6]): > 200 µg/mL
MBC (MRSA ATCC 33591; [7]): > 100 µg/mL
MBC (MRSA ATCC 33591; [8]): 25 µg/mL
MBC (E. coli ATCC 25922; [9]): 12.5 µg/mL
MBC (E. coli ATCC 25922; [10]): 12.5 µg/mL
MBC (E. coli ATCC 25922; [11]): 12.5 µg/mL
MBC (P. aeruginosa PAO-1; [12]): 12.5 µg/mL
MBC (P. aeruginosa PAO-1; [13]): 6.25 µg/mL
MBC (P. aeruginosa PAO-1; [14]): 6.25 µg/mL
MBC (P. aeruginosa ATCC 27853; [15]): 6.25 µg/mL
MBC (P. aeruginosa ATCC 27853; [16]): 6.25 µg/mL
MBC (P. aeruginosa ATCC 27853; [17]): 6.25 µg/mL

CCCCCCCCNC1=NC(C)(C)N=C(NCC2CCCCC2)N1 [Ref. Ex. 3, 4-octylamino-2-cyclohexylmethylamino-1,6-dihydro-6,6-dimethyl-1,3,5-triazine acetate, reference compound]
SI value (Stimulation index, lymph node weight ratio to solvent group) [2]: 4.6

CCCCCCCCNC1=NC(C)(C)NC(Nc2ccccc2)=N1 [Ref. Ex. 4, 1,6-dihydro-6,6-dimethyl-4-octylamino-2-phenylamino-1,3,5-triazine acetate, reference compound]
SI value (Stimulation index, lymph node weight ratio to solvent group) [2]: 4.4

CCCCCCCCNC1=NC(C)(C)N=C(NCc2ccc(C)cc2)N1 [Ref. Ex. 5, 4-octylamino-1,6-dihydro-6,6-dimethyl-2-(4-methylbenzylamino-1,3,5-triazine gluconate, reference compound]
SI value (Stimulation index, lymph node weight ratio to solvent group) [2]: 4.4

— patent US20110207926A1, “NOVEL DIHYDROTRIAZINE DERIVATIVE” (HAMARI CHEMICALS, LTD., priority 2008, published 2011)
